The values that follow come from patent publication US8278322.

Molecules are shown by their SMILES. Read-outs that look alike come from different tables or passages of the source.

In the case of `CCOC(=O)[C@@H]1C[C@@H]2CN1C(=O)[C@H](C(C)(C)C)NC(=O)OCCCC#Cc1ccc3ccnc(c3c1)O2`, for the setting “from CCOC(=O)[C@@H]1C[C@@H](Oc2nccc3ccc(C#CCCCOC(=O)N[C@H](C(=O)O)C(C)(C)C)cc23)CN1C(=O)OC(C)(C)C, amide bond, HATU, DCM, 3.7 mM, 20.0 h, 2 steps”, the ring closure, yield of all isomers came out at 14.5%.
Where the note is “from C=CCC(C)(C)COC(=O)N[C@H](C(=O)N1C[C@H](Oc2nccc3cc(OC)c(Br)cc23)C[C@H]1C(=O)OCC)C1CCCCC1, cc_pd bond, PdCl2(dppf), ethanol, 66.4 mM, 90.0 °C, 19.0 h”, `C=C1CC(C)(C)COC(=O)N[C@@H](C2CCCCC2)C(=O)N2C[C@@H](C[C@H]2C(=O)OCC)Oc2nccc3cc(OC)c1cc23` had a ring closure, yield of all isomers of 35.5%.
`CCCC[C@@H]1NC(=O)OCCCC=Cc2ccc3ccnc(c3c2)O[C@@H]2C[C@@H](C(=O)OCC)N(C2)C1=O`: for the setting “from C=CCCCOC(=O)N[C@@H](CCCC)C(=O)N1C[C@H](Oc2nccc3ccc(C=C)cc23)C[C@H]1C(=O)OCC, rcm bond, Zhan Catalyst I (RC-301), dichloro(5-chloro-2-isopropoxybenzylidene)(1,3-dimesitylimidazolidin-2-ylidene)ruthenium, 1,2-dichloroethane, 7.4 mM, 80.0 °C, 2.0 h”, the ring closure, yield of all isomers came to 63.5%.
Take `CCOC(=O)[C@@H]1C[C@@H]2CN1C(=O)[C@H](C1CCCC1)NC(=O)OCC(C)(C)C/C=C/c1ccc3ccnc(c3c1)O2`: the ring closure, yield of all isomers (from C=CCC(C)(C)COC(=O)N[C@H](C(=O)N1C[C@H](Oc2nccc3ccc(C=C)cc23)C[C@H]1C(=O)OCC)C1CCCC1, rcm bond, Zhan 1B, DCE, 2.88 mM, 70.0 °C, 3.0 h) came to 83%.
